pKd: −log10 of the molar value.
Molecular target: T1, DCAF1 WD40 domain (residues 1077-1390) (Homo sapiens, UniProt Q9Y4B6)
T1 construct: DCAF1 WD40 domain (residues 1077-1390)
Assay: DCAF1 binding assay by SPR (Biacore 8K+), DCAF1-3 KD
Conditions: 25 °C, read-out: DCAF1-3 SPR (KD)

T1 sequence (Q9Y4B6 1077-1390): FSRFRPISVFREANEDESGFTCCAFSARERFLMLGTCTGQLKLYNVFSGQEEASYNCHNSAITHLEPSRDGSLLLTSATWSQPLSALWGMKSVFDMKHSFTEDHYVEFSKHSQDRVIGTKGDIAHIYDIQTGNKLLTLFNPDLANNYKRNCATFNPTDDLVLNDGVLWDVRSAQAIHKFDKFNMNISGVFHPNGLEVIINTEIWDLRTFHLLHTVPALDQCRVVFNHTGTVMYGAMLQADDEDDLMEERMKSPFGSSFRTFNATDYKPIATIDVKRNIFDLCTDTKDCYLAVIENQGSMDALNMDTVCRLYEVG

pKd	SMILES
4.00 to 5.00	NC[C@@H]1C[C@@H](Nc2cc(N3CCCCC3)ccn2)CN(c2cccc(F)c2)C1 [I-1040]
4.00 to 5.00	C=CC(=O)NCCOCC1CCN(c2ccnc(N[C@@H]3CCCN(c4cccc(F)c4)C3)c2)CC1 [I-803]
> 5.00	Cc1cccc(F)c1-c1c[nH]cc1C(=O)N[C@@H](CC(N)=O)c1cccc(Cl)c1 [I-592]
4.00 to 5.00	CC(C)c1cccc(-c2[nH]ncc2C(=O)N[C@@H](CC(N)=O)c2cccc(Cl)c2)c1 [I-525]
< 3.70	Cc1sc2c(c1C)C(c1ccc(Cl)cc1)=N[C@@H](CC(=O)NCCCCCCCCCCCCCCCCCC1CCN(c3ccnc(N4CC[C@@H]5[C@H]4CCCN5c4cccc(F)c4)c3)CC1)c1nnc(C)n1-2 [I-901]
4.00 to 5.00	O[C@@H]1CC[C@@H](Nc2cc(N3CCCCC3)ccn2)C[C@H]1c1ccccc1 [I-985]
4.00 to 5.00	Cn1cncc1N1CCC[C@@H](Nc2cc(N3CCOCC3)ccn2)C1 [I-773]
4.00 to 5.00	NC[C@@H]1CC[C@H](Nc2cc(N3CCCCC3)ccn2)CN1c1cccc(F)c1 [I-1022]
4.00 to 5.00	C=CC(=O)NCCC1CCCN(c2ccnc(N[C@@H]3CCCN(c4cccc(F)c4)C3)c2)C1 (stereo partly drawn) [I-664]
> 5.00	Cc1c(F)ccc(F)c1-c1c(C(=O)N[C@@H](CC(N)=O)c2cccc(Cl)c2)c[nH]c1C(=O)c1ccc(CCCOCCOCCOCCOCCOCCN)cc1 [I-805]
> 5.00	C[C@@H]1CC[C@H](O)CN1c1ccnc(N2CC[C@@H]3[C@H]2CCCN3c2cccc(F)c2)c1 [I-824]
> 5.00	C[C@H]1CCCCN1c1ccnc(N[C@@H]2CCCN(c3cccc(F)c3)C2)c1 [I-569]
4.00 to 5.00	CCOC(=O)Cc1ccncc1N1CCC[C@@H](Nc2cc(N3CCOCC3)ccn2)C1 [I-766]
> 5.00	Cc1cccc(F)c1-c1c(C(=O)N[C@@H](CC(N)=O)c2cccc(Cl)c2)c[nH]c1C(=O)c1ccc(N2CCCCC2)cc1 [I-801]
> 5.00	Cc1c(F)ccc(F)c1-c1[nH]ncc1C(=O)N[C@@H](CC(N)=O)c1cccc(Cl)c1 [I-601]
< 3.70	NC(=O)c1cccc(N2CCC[C@@H](Nc3cc(N4CCOCC4)ccn3)C2)c1 [I-775]
> 5.00	Cc1cc(CCCOCCOCCOCCOCCOCCNC(=O)C[C@@H]2N=C(c3ccc(Cl)cc3)c3c(sc(C)c3C)-n3c(C)nnc32)cc(F)c1-c1c(C(=O)N[C@@H](CC(N)=O)c2cccc(Cl)c2)c[nH]c1C#N [I-1051]
> 5.00	Cc1ccc(CCCOCCOCCOCCOCCOCCN)c(F)c1-c1c(C(=O)N[C@@H](CC(N)=O)c2cccc(Cl)c2)c[nH]c1C#N [I-978]
< 3.70	C[n+]1ccc(N2CCOCC2)cc1N[C@@H]1C[C@@H](O)CN(c2cccc(F)c2)C1 [I-520]
4.00 to 5.00	O[C@@H](c1cccc(N2CCC[C@@H](Nc3cc(N4CCOCC4)ccn3)C2)c1)C(F)(F)F [I-772]
< 3.70	O=C(Nc1nc2c(s1)CCCC2)[C@@H]1CCCN(c2cccc(F)c2)C1 [I-669]
< 3.70	CN(C)CC[C@H](c1ccc(N2CCC[C@@H](Nc3cc(N4CCOCC4)ccn3)C2)cc1)c1ccccn1 [I-783]

pKd	SMILES
4.00 to 5.00	c1cc(N2CCOCC2)cc(N[C@@H]2CCCN(c3ccc(OCCN4CCCC4)nc3)C2)n1 [I-677]
4.00 to 5.00	NC(=O)N1Cc2ccc(N3CCC[C@@H]4[C@H]3CCN4c3cc(N4CCCCC4)ccn3)cc2C1 [I-957]
4.00 to 5.00	OCc1cnc2ccc(N3CCC[C@@H](Nc4cc(N5CCOCC5)ccn4)C3)nn12 [I-696]
< 3.70	NCCOCCOCCOCCOCCC1CCN(c2ccnc(N3CC[C@@H]4[C@H]3CCCN4c3cccc(F)c3)c2)CC1 [I-650]
4.00 to 5.00	c1cc(N2CCOCC2)cc(N[C@@H]2CCCN(c3nccc(N4CCCC4)n3)C2)n1 [I-678]
> 5.00	O=C(N[C@@H](CC(=O)N1CCNCC1)c1cccc(Cl)c1)c1cn[nH]c1-c1ccccc1F [I-787]
> 5.00	Fc1cccc(N2CCC[C@H]3[C@@H]2CCCN3c2cc(N3CCCCC3)ccn2)c1 [I-720]
> 5.00	Cc1c(F)ccc(F)c1-c1c(C(=O)N[C@@H](CC(N)=O)c2cccc(Cl)c2)c[nH]c1C(=O)c1ccc(CCCOCCOCCOCCN)cc1 [I-806]
4.00 to 5.00	OCCC[C@@H]1C[C@H]2[C@@H](CCCN2c2cccc(F)c2)N1c1cc(N2CCCCC2)ccn1 [I-831]
4.00 to 5.00	COC(=O)c1nc(N2CCC[C@@H](Nc3cc(N4CCOCC4)ccn3)C2)ccc1C [I-781]
4.00 to 5.00	Oc1ccc(C2CCCCC2)cc1N[C@@H]1CCCN(c2cccc(F)c2)C1 [I-921]
> 5.00	Cc1c(F)ccc(F)c1-c1c(C(=O)N[C@@H](CC(N)=O)c2cccc(Cl)c2)cn(C)c1C(=O)c1ccc(OCCOCCOCCOCCOCCOCCN)cc1 [I-1018]
4.00 to 5.00	OC[C@@H]1C[C@H](Nc2cc(N3CCCCC3)ccn2)CN(c2cccc(F)c2)C1 [I-1011]
4.00 to 5.00	Nc1cc(N[C@@H]2CCCN(c3cccc(F)c3)C2)cc(C2CCCCC2)c1 [I-970]
4.00 to 5.00	Cc1c(F)ccc(F)c1-c1[nH]ncc1C(=O)N[C@H](c1cccc(Cl)c1)[C@@H]1CCOC1 [I-967]
4.00 to 5.00	C=CC(=O)NCCCN1CCN(c2ccnc(N3CC[C@@H]4[C@H]3CCCN4c3cccc(F)c3)c2)CC1 [I-846]
< 3.70	Cc1sc2c(c1C)C(c1ccc(Cl)cc1)=N[C@@H](CC(=O)NCCCCCCCCCCCCCCCCCCCCC1CCN(c3ccnc(N4CC[C@@H]5[C@H]4CCCN5c4cccc(F)c4)c3)CC1)c1nnc(C)n1-2 [I-903]
> 5.00	Fc1cccc(N2CCC[C@@H](Nc3cc(N4C5CCCC4C5)ccn3)C2)c1 [I-616]
< 3.70	Fc1cccc(N2CCC[C@@H](Cc3cc(N4CCOCC4)[nH]n3)C2)c1 [I-631]
> 5.00	NC(=O)C[C@H](NC(=O)c1c[nH]c(C(=O)c2ccccc2)c1-c1ccccc1F)c1cccc(Cl)c1 [I-603]
> 5.00	Cc1ccc(S(=O)(=O)c2[nH]cc(C(=O)N[C@@H](CC(N)=O)c3cccc(Cl)c3)c2-c2c(F)ccc(F)c2C)cc1 [I-817]

Continued, molecule first:

SMILES	pKd
CC(=O)Nc1cccnc1N1CCC[C@@H](Nc2cc(N3CCOCC3)ccn2)C1 [I-430]	< 3.70
O=C1Cc2cc(N3CCC[C@@H](Nc4cc(N5CCOCC5)ccn4)C3)ncc2N1 [I-425]	< 3.70
N#CCCN(c1cc(N2CCOCC2)ccn1)[C@@H]1CCCN(c2cccc(F)c2)C1 [I-289]	< 3.70
NC(=O)C[C@H](NC(=O)c1c[nH]nc1-c1c(F)cccc1F)c1cccc(Cl)c1 [I-150]	> 5.00
Cc1ccc(-c2[nH]ncc2C(=O)N[C@@H](CC(N)=O)c2cccc(Cl)c2)cc1 [I-103]	> 5.00
Fc1cccc(N2CCC[C@@H](Nc3cc([C@@H]4CCCCO4)ccn3)C2)c1 [I-94]	< 3.70
N#Cc1ccccc1[C@H](CC(N)=O)NC(=O)c1cn[nH]c1-c1ccccc1F [I-342]	4.00 to 5.00
Fc1cccc(N2CCCC(C3(c4cc(N5CCOCC5)ccn4)CC3)C2)c1 (stereo not drawn) [I-259]	< 3.70
Fc1cccc(N2CC[C@@H]3CCCc4cnc(N5CCOCC5)cc4N[C@H]3C2)c1 [I-363]	< 3.70
NC(=O)C[C@H](NC(=O)[C@H]1C[C@@](O)(c2ccccc2)C1)c1cccc(Cl)c1 [I-445]	< 3.70
C[C@@H]1C[C@@H](Nc2cc(N3CCOCC3)ncn2)CN(c2cccc(F)c2)C1 [I-177]	< 3.70
Cc1sc2c(c1C)C(c1ccc(Cl)cc1)=N[C@@H](CC(=O)NCCOCCOCCOCCOCCn1cc(C(=O)N[C@@H](CC(N)=O)c3cccc(Cl)c3)c(-c3ccccc3F)n1)c1nnc(C)n1-2 [I-490]	4.00 to 5.00
Fc1cccc(N2CCCC(Nc3nccc(N4CCCCC4)n3)C2)c1 (stereo not drawn) [I-27]	3.70 to 4.00
NC(=O)C[C@H](NC(=O)C1=C(c2c(F)cccc2F)CCNC1)c1cccc(Cl)c1 [I-550]	3.70 to 4.00
Oc1ccc(N2CCC[C@@H](Nc3cc(N4CCOCC4)ncn3)C2)cc1 [I-14]	3.70 to 4.00
Fc1cccc(N2CCC[C@@H](Nc3cc(N4CCOCC4)cnn3)C2)c1 [I-20]	< 3.70
c1ccc2c(N3CCC[C@@H](Nc4cc(N5CCOCC5)ccn4)C3)ncnc2c1 [I-67]	< 3.70
NC(=O)C[C@H](NC(=O)c1c[nH]cc1-c1ccccc1F)c1ccccc1Cl [I-96]	4.00 to 5.00
CC(C)Cn1cc(N2CCC[C@@H](Nc3cc(N4CCOCC4)ccn3)C2)cn1 [I-421]	< 3.70

SMILES	pKd
NC(=O)C[C@H](NC(=O)c1n[nH]cc1-c1ccccc1F)c1cccc(Cl)c1 [I-100]	4.00 to 5.00
CC(C)n1ncc(C(=O)N[C@@H](CC(N)=O)c2cccc(Cl)c2)c1-c1ccccc1F [I-134]	3.70 to 4.00
N#Cc1ncccc1N1CCC[C@@H](Nc2cc(N3CCOCC3)ccn2)C1 [I-424]	< 3.70
C=CC(=O)NCc1n[nH]cc1C(=O)N[C@@H](CC(N)=O)c1cccc(Cl)c1 [I-467]	< 3.70
Fc1cccc(N2CCC3CCCc4cnc(N5CCOCC5)cc4N[C@H]3C2)c1 (stereo partly drawn) [I-226]	< 3.70
COc1ccc([C@H](CC(N)=O)NC(=O)c2cn[nH]c2-c2ccccc2F)cc1 [I-136]	3.70 to 4.00
Fc1cccc(N2CCC[C@@H](Nc3cc(N4CCCCC4)ccn3)C2)c1 [I-503]	> 5.00
N#Cc1cccc([C@H](CC(N)=O)NC(=O)c2c[nH]nc2-c2ccccc2F)c1 [I-117]	4.00 to 5.00
C=CC(=O)N(C)[C@H]1C[C@H](N(C)c2ccnc(N[C@@H]3CCCN(c4cccc(F)c4)C3)c2)C1 [I-480]	< 3.70
c1ccc2nc(N3CCC[C@@H](Nc4cc(N5CCOCC5)ncn4)C3)ccc2c1 [I-397]	< 3.70
CS(=O)(=O)CCN(c1cc(N2CCOCC2)ccn1)[C@@H]1CCCN(c2cccc(F)c2)C1 [I-292]	< 3.70
OC[C@@]1(Nc2cc(N3CCOCC3)ccn2)CCCN(c2cccc(F)c2)C1 [I-276]	< 3.70
CN(C)c1ccnc(N[C@@H]2CCCN(c3cccc(F)c3)C2)c1 [I-498]	4.00 to 5.00
C=CC(=O)N1CCc2[nH]nc(C(=O)N[C@@H](CC(N)=O)c3cccc(Cl)c3)c2C1 [I-300]	< 3.70
Fc1cccc(N2CCC[C@@H](Nc3cc(N4C[C@H]5CCC4CO5)ncn3)C2)c1 [I-309]	< 3.70
C=CC(=O)Nc1n[nH]cc1C(=O)N[C@@H](CC(N)=O)c1cccc(Cl)c1 [I-308]	< 3.70
NC(=O)C[C@@](NC(=O)c1c[nH]nc1-c1ccccc1F)(C(=O)O)c1cccc(Cl)c1 [I-294]	< 3.70
c1ccc(N2CCC[C@@H](Nc3cc(N4CCOCC4)ncn3)C2)cc1 [I-2]	3.70 to 4.00
C=CC(=O)N1CCC(c2n[nH]cc2C(=O)N[C@@H](CC(N)=O)c2cccc(Cl)c2)=N1 [I-471]	< 3.70
